The values that follow come from publication PMC4785615, “Evidence that phospholipase C is involved in the antitumour action of NSC768313, a new thieno[2,3-b]pyridine derivative” (Cancer Cell International, 2016).

In series [1] the test system is MDA-MB-231 breast cancer cells. In words: Microtubule imaging (anti-tubulin and Hoechst staining). The following applies: MDA-MB-231, 16 h; for Microtubule arrangement: FITC anti-tubulin staining. The format is cell-based, human. How it is done: Cells were grown on a glass slide with and without inhibitors, fixed by 4 % paraformaldehyde, permeabilised by 0.5 % Triton X-PBS and incubated with 5 % BSA/PBS containing FITC-labelled anti-tubulin antibody. Microtubule arrangement was monitored by fluorescence staining of microtubules using anti-tubulin and analysed by fluorescent microscopy using Floid imaging station (460× magnification). Nucleus was stained with 2 μg/ml Hoechst stain (Life Technology) for 10 min at room temperature. Hoechst stain emits blue fluorescence when bound to double strand DNA.

For series [2], the system named is MDA-MB-231 breast cancer cells. Nature of the series: DNA damage by γH2AX (flow cytometry, immunoblot). Type of series: cell-based, human. The conditions noted are these: MDA-MB-231, 1 μM, 24 h; for Proportion of cells with high γ-H2AX phosphorylation: basal level 1 %. As for the experimental part:
(§1) As described in detail previously, cells (10^6 cells per well) were grown in 6 well plates and incubated with inhibitors for the indicated time. Cells were harvested, washed and resuspended in 1 ml of blocking buffer (1 % FCS/PBS), and incubated with antibody to γ-H2AX (phosphorylated Ser139) (Millipore, USA) in blocking buffer (1:500 dilution) at room temperature for 2 h. Cells were washed, incubated with goat anti-mouse Alex 488 Fab fragment secondary antibody (Invitrogen, New Zealand) (1:400 in blocking buffer for 1 h, at room temperature; dark), washed and resuspended in 1 ml of blocking buffer containing RNase (1 μg/ml) and propidium iodide (PI) (10 μg/ml) for 30 min at room temperature. Cells were analysed in a Becton–Dickinson LSRII and profiles were analysed with ModFit LT 3 software.
As described in detail previously cells were grown to log-phase, washed twice with ice-cold PBS, and lysed in SDS lysis buffer according to the manufacturer’s protocol (Cell Signalling Technology, Danvers, MA, USA). Protein concentration was quantified using the BCA protein assay reagent bicinchoninic acid (Sigma, New Zealand). Cell lysates containing 25 μg of protein were separated by SDS-PAGE and transferred to PVDF membranes (Millipore). Membranes were immunoblotted with antibodies against to γ-H2AX (phosphorylated Ser139) (Millipore, USA), and actin (Millipore), using SuperSignalWest Pico (Thermo Scientific, Waltham,MA, USA) chemiluminescence reagents. Antibody reactivity was visualized using the chemiluminescence detection system by Fujifilm Las-3000.
For orientation: Flow cytometry measures light scatter and fluorescence of single cells or particles in a stream.

Another series concerns breast cancer cells. Also on record: method as in doi:10.1039/C3MD00290J. The following applies: earlier flow cytometry; cited from earlier work.
The next series deals with T47D. In words: Cell proliferation assay (3H-thymidine incorporation, 3 days). Type of series: cell-based, human. The following applies: 3 days treatment. As for the experimental part:
(§2) Culture conditions have been described in detail previously; human breast cancer cell lines MCF-7, T47D, MDA-MB-468, MDA-MB-231, human epithelial carcinoma cell line A431 and human colon cancer cell line HCT116 were purchased from the American Type Culture Collection (ATCC). Cells were grown in α-MEM containing 5 % fetal calf serum, insulin/transferrin/selenium supplement, added according to the manufacturer’s instructions (Roche), as well as penicillin/streptomycin (100 U/ml and 100 μg/ml, respectively).
(§3) As described in detail previously, cell proliferation was measured using a thymidine incorporation assay by seeding 3000 cells in each well using 96 well plates with varying concentrations of inhibitors for 3 days. Experiments were performed in triplicate with a minimum of two experimental repeats. Briefly, ^3H-thymidine (0.04 µCi) was added to each well and incubated for 5 h, after which the cells were gathered onto glass fibre filters using an automated TomTec harvester. Filters were incubated with Betaplate Scint and thymidine incorporation determined with Trilux/Betaplate counter showing the percentage of cells incorporated with ^3H-thymidine into the DNA helix.
(Incorporation of labelled thymidine or its analogues reports DNA synthesis.)

Series [3] can be described thus: Tolerability in mice after intraperitoneal injection. The format is in vivo. The following applies: 10 mg/Kg intraperitoneal injection, 20 % HP-β CD. As for the experimental part: (§4) Male CD-1 mice were obtained from Vernon Jansen Unit (University of Auckland) and housed in cages with a 12-hour light/dark cycle and received sterilized food and water ad libitum. Studies and procedures were conducted with prior approval of the Ethics Committee of the University of Auckland (AEC approval number 1190). Derivative 3 was prepared in 20 % HP-β CD as a fine yellow suspension, and administered (at 10 mg/Kg) as intraperitoneal bolus injection. Blood samples were collected via a terminal cardiac bleeding (n = 3 mice/time) at 0.167, 0.5, 1, 2 and 6 h post dose. Blood was collected in ice cold K2-EDTA tubes and kept on ice. All samples were centrifuged at 6500 rpm for 5 min at room temperature, obtained plasma were stored at −80 °C until analysed by LC–MS/MS.
Derivative 3 was chosen for a small pharmacokinetic study.

Series [4] is described as follows: Mouse plasma pharmacokinetics. The conditions noted are these: ip, male CD-1 mice, 10 mg/Kg intraperitoneal. The format is in vivo. How it is done: as §4
Briefly, plasma samples were assayed for derivative 3 using liquid chromatography-tandem mass spectrometry (LC–MS/MS) method. Briefly, derivative 3 was spiked in the drug mouse plasma to obtain a concentration 0.003, 0.03, 0.3, 3, 10 and 30 µM to construct a calibration curve. Derivative 1 (a structural analogue of 3) was used as an internal standard in LC–MS/MS assay at a concentration of 0.5 μM added to acetonitrile. Drug was extracted from plasma using direct protein precipitation with ice cold acetonitrile (1:4 v/v) and quantified by peak area ratio of 3 versus 1 using a calibration curve prepared with derivative 3 as outlined above. LC–MS/MS used was Agilent 6410b with multimode ion source operated in atmospheric pressure chemical ionization (APCI) positive mode attached to an Agilent 1200 series HPLC system. LC–MS/MS used an Agilent Zorbax SB-C18 column (2.1 × 50 mm, 5 µM, USA) operated at 35 °C, at a flow rate 0.5 mL/min with a gradient consisting of 0.01 % formic acid in MilliQ water (Millipore, USA) and 0.01 % formic acid in 80 % acetonitrile-20 % MilliQ water. The MS1 and MS2 were operated at unit resolution in the multiple reaction monitoring (MRM) mode, monitoring the transition of the protonated molecular ions at m/z 368 to the product ions at m/z 245 for derivative 3 and monitoring the transition of the protonated molecular ions at m/z 372 to the product ions at m/z 245 for derivative 1 (internal standard). […] The lower limit of quantification for derivative 3 in plasma was 0.003 μM.
Mean mouse plasma-time data for derivative 3 was analysed with non-compartmental method using Phoenix WinNonlin 6.2 (Pharsight Corporation, Mountain View, CA) as shown in Table 1.

The subject of the next series is A431 cells. In words: Calcium flux assay (EGF-induced, Fluo-4). The format is cell-based, human. The following applies: pre-treatment at 25 and 50 μM, EGF 400 ng/ml. How it is done:
A431 cells were plated onto 96 wells until confluent. Cells were loaded with 5 µM Fluo-4 acetoxymethyl ester with 0.003 % pluronic acid and 2.5 mM Probenecid (Molecular Probes) for 30 min at 37 °C, then washed with buffer and incubated for another 30 min. Epidermal growth factor (EGF) (400 ng/ml) was used as an activator. EGF alone or with derivative 3 were added to A431 cells to determine the inhibitory activity on calcium flux of derivative 3, and compared with buffer (negative control) and 1 µg/ml ionomycin (positive control). Fluorescence signal was recorded from the bottom of the plate at 1 s intervals (3 wells per/s) using an EnSpire 2300 Multimode Plate Reader (Perkin-Elmer) at excitation wavelength of 494 nm and emission wavelength of 506 nm (25 °C, 3 mm measurement height, 50 flashes). Baseline fluorescence was recorded for 10 s, after which buffer alone, EGF alone or with drug, was added and fluorescence was captured for a further 45 s. Next, ionomycin was added and fluorescence was recorded for another 45 s. Three independent experiments were performed.
(A change in cytosolic calcium serves as a functional read-out for many receptors and channels.)

A further series can be described thus: Aqueous solubility. The format is physicochemical.
The test system of a further series is HCT116. In words: Combination growth inhibition with cytotoxic drugs (Bliss model). Type of series: cell-based, human. The conditions noted are these: HCT116, derivative 3 50 nM plus paclitaxel. As for the experimental part:
as §3
(§5) As described previously for everolimus and other inhibitors, we employed the Bliss additivism model to classify the drug combinations as additive, synergistic or antagonistic. A theoretical curve was calculated for combined inhibition using the equation Ebliss = (EA + EB) − (EA × EB), where EA and EB are the fractional inhibitions obtained by drug A alone and drug B alone at specific concentrations. Ebliss is the fractional inhibition that would be expected if the effects of the two drugs were additive. The difference (Bliss) in the experimentally measured fractional inhibition (Expt) and Ebliss are defined as synergism […], additive (Expt = Ebliss), and antagonism […]. Bliss = 0 would indicate the combination is additive; Bliss > 0 would indicate the percentage increase in maximal inhibition above additivity (synergy); and Bliss < 0 would indicate the percentage decrease in maximal inhibition below additivity (antagonism). The data were analysed using a one-way ANOVA coupled with multiple comparisons versus treatment control applying the Holm-Sidak method correction, where p < 0.05 denotes a statistically significant difference.

In series [5] the test system is MDA-MB-231. The description is as above. Type of series: cell-based, human. As for the experimental part: as §3, §5
Series [6] relates to MDA-MB-231. Nature of the series: Cell proliferation assay (3H-thymidine incorporation, 3 days). The conditions noted are these: Homo sapiens, 72 h; MDA-MB-231, thymidine incorporation, 3 days treatment; read-out: IC50 (50 % inhibition of growth). The format is cell-based. As for the experimental part:
as §2, §3

In the next series the test system is MCF7. The series is described as above. The format is cell-based. The conditions noted are these: Homo sapiens, 72 h, 3 days treatment, read-out: IC50 (50 % inhibition of growth). How it is done: as §2, §3
The test system of a further series is MDA-MB-468. Described as above. Type of series: cell-based. The conditions noted are these: Homo sapiens, 72 h; MDA-MB-468, thymidine incorporation, 3 days treatment; read-out: IC50 (50 % inhibition of growth). How it is done:
as §2, §3

In series [7] the test system is MDA-MB-231 breast cancer cells. In words: Cell cycle distribution by flow cytometry. The format is cell-based, human. The following applies: MDA-MB-231, 1 μM, 24 h. How it is done: as §1

On to `CC(=O)O[C@H]1C(=O)[C@@]2(C)[C@H]([C@H](OC(=O)c3ccccc3)[C@]3(O)C[C@H](OC(=O)[C@H](O)[C@@H](NC(=O)c4ccccc4)c4ccccc4)C(C)=C1C3(C)C)[C@]1(OC(C)=O)CO[C@@H]1C[C@@H]2O` [paclitaxel, reference compound], for which, in series [1], the Microtubule arrangement entry is “shortened and bundling of microtubules”.

As to `CC[C@@]1(O)C(=O)OCc2c1cc1n(c2=O)Cc2cc3ccccc3nc2-1` [camptothecin, reference compound], the “Proportion of cells with high γ-H2AX phosphorylation” value in series [2] was found to be 69%.

For the molecule `Nc1c(C(=O)Nc2cccc(Cl)c2)sc2nc3c(cc12)C(=O)CCC3` [derivative 1], the Cell cycle effect result in the series on breast cancer cells is “caused G2/M arrest”.

For `Nc1c(C(=O)Nc2cccc3ccccc23)sc2nc3c(cc12)C(=O)CCC3` [derivative 5], in the series on T47D, the “IC50 (50 % inhibition of growth)” value was “not reached”.

`COc1cccc(NC(=O)c2sc3nc4c(cc3c2N)C(=O)CCC4)c1` [derivative 3]: in series [3], the Tolerability entry was “well tolerated with no acute reaction observed”. Further, the “DNA damage (γH2AX)” value in series [2] is given as “did not initiate DNA damage”. Further, in [2], the “Proportion of cells with high γ-H2AX phosphorylation” value amounted to 4%. Moreover, the half-life in [4] (male, CD-1, mouse, 10 mg/kg, read-out: t1/2 (elimination half-life)) is more than 240 min. The k el in [4] (mouse, 20 % HP-β CD suspension, read-out: Ke (elimination rate constant) (converted)) is 4.72e-06 s⁻¹. In addition, the AUC(0-inf) (as a rule, total exposure, with the tail of the curve extrapolated) in series [4] (mouse, extrapolated to infinity) was 0.19 µM·h. Besides, the Tmax in series [4] (mouse, post injection, read-out: Time of maximal plasma concentration (converted)) was 30 min. Also, in series [4] (mouse, read-out: Cmax (maximum concentration in plasma)), the Cmax worked out at 87 nM. The AUC(0-t) in series [4] (mouse, up to 6 h, read-out: AUC0–6 h) amounted to 0.13 µM·h. Moreover, the “Effect on increase in intracellular calcium levels induced by EGF” value in the series on A431 cells is reported as “no effect”. In “Aqueous solubility”, the Aqueous solubility entry was “poor”. The “Drug interaction with paclitaxel (Bliss)” value with HCT116 is “Synergism”; in the series with MDA-MB-231 [5] (MDA-MB-231, derivative 3 50 nM plus paclitaxel), “synergistic effect”. In addition, the “Drug interaction with camptothecin (Bliss)” value with MDA-MB-231 [5] (MDA-MB-231, derivative 3 50 nM plus camptothecin) is “only additive effects”. The “Drug interaction with doxorubicin (Bliss)” value in the series on MDA-MB-231 [5] (MDA-MB-231, derivative 3 50 nM plus doxorubicin) is on record as “only additive effects”. Besides, the IC50 in the series on MDA-MB-231 [6], in the series with MCF7 and with MDA-MB-468 was less than 100 nM throughout. Further, in series [7], the Cell cycle effect result is reported as “induce G2/M phase cell cycle arrest”. In addition, the Cell morphology result in [1] is given as “membrane blebbing”. In series [1], the Microtubule arrangement result is given as “No microtubule bundles were observed”. The Nuclear phenotype result in series [1] (Hoechst staining) was “abnormal nuclear phenotype and possessed multinuclear cells”.
